Data taken from ChEMBL document CHEMBL1201862, “PubChem BioAssay data set” (2004).
The source made the active and inactive calls.

Key:
[1] = cytotoxicity in HEK-293T cells, dose response, cytotoxicity control for BCR NF-kB inhibitor project, luminescence, B-cell screen hits (AID 489021); assay type: functional, cell-based;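 further: HEK-293T cells carrying an NF-kB luciferase reporter; cells exposed to compound for about 14 hours before viability readout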
[2] = target: T1, Rac GTPase-activating protein 1 (Homo sapiens, UniProt Q9H0H5); experiment: MgcRacGAP GTPase-activating activity inhibitors, confirmation, biochemical, ADP Hunter fluorescence, primary and confirmatory (AID 624330); assay type: functional
T1 sequence (Q9H0H5 whole entry): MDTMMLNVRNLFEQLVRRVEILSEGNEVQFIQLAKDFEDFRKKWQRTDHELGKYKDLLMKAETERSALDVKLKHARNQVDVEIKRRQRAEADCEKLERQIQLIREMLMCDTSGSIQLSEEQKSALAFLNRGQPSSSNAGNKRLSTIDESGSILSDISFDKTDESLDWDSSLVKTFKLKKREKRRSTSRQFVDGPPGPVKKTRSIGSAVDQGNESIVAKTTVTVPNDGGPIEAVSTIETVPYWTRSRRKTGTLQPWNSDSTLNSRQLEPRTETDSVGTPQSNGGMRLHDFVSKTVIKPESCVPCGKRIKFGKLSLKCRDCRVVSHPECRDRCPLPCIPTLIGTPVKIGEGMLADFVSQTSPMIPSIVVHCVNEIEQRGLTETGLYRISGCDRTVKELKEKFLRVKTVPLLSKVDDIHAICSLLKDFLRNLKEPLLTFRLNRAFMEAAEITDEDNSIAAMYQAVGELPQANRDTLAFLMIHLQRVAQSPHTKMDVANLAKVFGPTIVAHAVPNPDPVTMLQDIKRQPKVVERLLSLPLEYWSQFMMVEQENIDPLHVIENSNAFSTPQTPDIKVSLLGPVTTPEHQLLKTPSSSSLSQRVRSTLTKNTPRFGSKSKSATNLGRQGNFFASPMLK

[3] = target: FAD-linked sulfhydryl oxidase ALR (Homo sapiens, UniProt P55789); experiment: inhibitors of human ALR sulfhydryl oxidase, dose response, biochemical, H2O2 detection, luminescence, cherry-pick (AID 493248)
Large T antigen = Large T antigen (Simian virus 40, UniProt P03070); assay type: functional, Betapolyomavirus macacae;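 further: Confirmatory-stage PubChem screen for compounds that inhibit SV40 T antigen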
[4] = target: T2, Endoribonuclease toxin MazF (Escherichia coli K-12, UniProt P0AE70); experiment: fluorescent RNA oligo signal without MazF, dose response, counter-screen for MazEF activator project, biochemical, fluorescence, single-stranded RNase substrate (AID 588502); assay type: functional
T2 sequence (P0AE70 whole entry): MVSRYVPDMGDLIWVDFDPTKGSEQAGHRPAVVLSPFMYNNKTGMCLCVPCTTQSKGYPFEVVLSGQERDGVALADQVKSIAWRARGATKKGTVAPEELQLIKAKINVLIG

[5] = target: T2, Endoribonuclease toxin MazF; experiment: MazF toxin RNase activators, dose response, biochemical, fluorescence, single-stranded RNA substrate, uHTS hits (AID 588481); assay type: functional
cells [6] = assay type: functional, cell-based
cells [7] = assay type: functional, cell-based; remark: listed apart in the source
Protein skinhead-1 = target: T3, Protein skinhead-1 (Caenorhabditis elegans, UniProt P34707); assay type: functional
T3 sequence (P34707 whole entry): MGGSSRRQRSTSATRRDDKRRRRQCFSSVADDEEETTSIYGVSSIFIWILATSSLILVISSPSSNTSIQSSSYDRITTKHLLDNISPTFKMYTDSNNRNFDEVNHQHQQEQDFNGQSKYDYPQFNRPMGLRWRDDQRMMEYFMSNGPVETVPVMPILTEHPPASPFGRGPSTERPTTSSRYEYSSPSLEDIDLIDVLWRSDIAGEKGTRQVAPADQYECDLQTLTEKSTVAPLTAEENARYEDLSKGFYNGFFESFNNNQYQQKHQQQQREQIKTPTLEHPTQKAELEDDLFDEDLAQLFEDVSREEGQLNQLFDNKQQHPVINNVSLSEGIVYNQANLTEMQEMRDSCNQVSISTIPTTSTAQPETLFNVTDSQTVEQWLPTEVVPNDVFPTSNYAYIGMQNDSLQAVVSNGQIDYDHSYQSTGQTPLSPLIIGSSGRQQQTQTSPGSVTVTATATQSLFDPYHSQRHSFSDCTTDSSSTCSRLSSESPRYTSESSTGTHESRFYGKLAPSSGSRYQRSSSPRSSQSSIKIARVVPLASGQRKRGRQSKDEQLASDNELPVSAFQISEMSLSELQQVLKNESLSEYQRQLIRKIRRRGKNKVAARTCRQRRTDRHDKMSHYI

Streptococcus = experiment: Group A Streptococcus viability loss, dose response, counter-screen for streptokinase expression inhibitor project, luminescence, BacTiterGlo (AID 1915); assay type: functional, organism-based;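 further: potency for reduction of bacterial viability or growth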
Streptokinase A = target: T4, Streptokinase A (Streptococcus pyogenes serotype M1, UniProt P10520); experiment: S. pyogenes streptokinase expression inhibitors, potency, dose response, plasminogen activation absorbance, OD405 (AID 1914); assay type: functional, Streptococcus pyogenes M1 GAS;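 further: secreted streptokinase activity via plasminogen activation per viability signal from cell pellet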
T4 sequence (P10520 whole entry): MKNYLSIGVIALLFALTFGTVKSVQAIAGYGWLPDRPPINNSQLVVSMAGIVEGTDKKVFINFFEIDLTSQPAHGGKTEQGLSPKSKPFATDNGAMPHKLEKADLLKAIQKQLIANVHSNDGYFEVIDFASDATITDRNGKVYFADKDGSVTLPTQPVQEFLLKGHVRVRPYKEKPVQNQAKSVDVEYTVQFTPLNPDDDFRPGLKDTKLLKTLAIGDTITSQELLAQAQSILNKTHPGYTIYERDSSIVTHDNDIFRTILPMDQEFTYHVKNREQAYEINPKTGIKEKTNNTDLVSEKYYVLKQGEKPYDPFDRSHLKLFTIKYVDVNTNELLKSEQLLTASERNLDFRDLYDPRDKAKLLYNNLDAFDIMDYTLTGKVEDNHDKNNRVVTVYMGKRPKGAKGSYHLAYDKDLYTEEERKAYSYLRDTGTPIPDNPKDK

[8] = test system: Streptococcus sp. 'group A'; experiment: growth inhibition of control SK(-) GAS strain, dose response, counter-screen for streptokinase expression inhibitor project, luminescence, kanamycin, BacTiterGlo, confirmation (AID 1900); assay type: functional, organism-based
[9] = target: DNA dC->dU-editing enzyme APOBEC-3G (Homo sapiens, UniProt Q9HC16); experiment: Dose Response confirmation of small molecule APOBEC3G DNA Deaminase Inhibitors via a fluorescence-based single-stranded DNA deaminase assay. [Related pubchem assays (depositor defined):AID493012, AID493028]; assay type: functional
[10] = target: Luciferin 4-monooxygenase (Photinus pyralis, UniProt P08659); experiment: firefly luciferase enzyme inhibitors, dose response, biochemical, luminescence (AID 1891)
[11] = Luminescence Cell-Based Dose Confirmation HTS to Identify Inhibitors of Platelet Dense Granule Release. [Related pubchem assays: 1663 (Primary HTS), 1678 (Summary of Project)]; assay type: functional

Sequence of DNA dC->dU-editing enzyme APOBEC-3G (Q9HC16 whole entry): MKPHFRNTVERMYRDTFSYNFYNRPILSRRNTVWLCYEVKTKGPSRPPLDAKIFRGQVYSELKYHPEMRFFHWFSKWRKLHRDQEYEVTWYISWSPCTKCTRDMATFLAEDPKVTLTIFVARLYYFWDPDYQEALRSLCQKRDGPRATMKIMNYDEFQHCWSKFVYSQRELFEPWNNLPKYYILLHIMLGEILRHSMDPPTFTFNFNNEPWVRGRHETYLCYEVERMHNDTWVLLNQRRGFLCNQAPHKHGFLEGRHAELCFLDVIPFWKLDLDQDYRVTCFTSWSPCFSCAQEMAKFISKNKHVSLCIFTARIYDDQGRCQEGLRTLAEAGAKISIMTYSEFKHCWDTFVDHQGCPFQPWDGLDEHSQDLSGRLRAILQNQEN
Sequence of Large T antigen (P03070 whole entry): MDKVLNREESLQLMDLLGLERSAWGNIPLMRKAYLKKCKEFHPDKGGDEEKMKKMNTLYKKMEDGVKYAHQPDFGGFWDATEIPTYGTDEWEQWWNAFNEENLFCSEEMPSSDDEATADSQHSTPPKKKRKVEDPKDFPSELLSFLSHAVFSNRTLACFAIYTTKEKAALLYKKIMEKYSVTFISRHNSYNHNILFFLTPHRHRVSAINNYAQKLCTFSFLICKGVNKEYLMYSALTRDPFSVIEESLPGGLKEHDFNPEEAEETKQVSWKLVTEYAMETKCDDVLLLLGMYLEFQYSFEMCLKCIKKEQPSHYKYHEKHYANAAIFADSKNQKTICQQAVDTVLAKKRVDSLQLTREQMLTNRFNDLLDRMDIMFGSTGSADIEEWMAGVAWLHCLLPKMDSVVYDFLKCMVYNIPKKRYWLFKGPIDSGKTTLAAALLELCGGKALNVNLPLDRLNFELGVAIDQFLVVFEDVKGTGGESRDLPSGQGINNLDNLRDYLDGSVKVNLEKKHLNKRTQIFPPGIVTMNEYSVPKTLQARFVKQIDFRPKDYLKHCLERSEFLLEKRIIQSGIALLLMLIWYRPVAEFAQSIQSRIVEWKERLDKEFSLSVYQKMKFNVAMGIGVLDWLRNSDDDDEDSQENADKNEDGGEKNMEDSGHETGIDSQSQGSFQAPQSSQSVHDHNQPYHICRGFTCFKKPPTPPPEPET
Sequence of FAD-linked sulfhydryl oxidase ALR (P55789 whole entry): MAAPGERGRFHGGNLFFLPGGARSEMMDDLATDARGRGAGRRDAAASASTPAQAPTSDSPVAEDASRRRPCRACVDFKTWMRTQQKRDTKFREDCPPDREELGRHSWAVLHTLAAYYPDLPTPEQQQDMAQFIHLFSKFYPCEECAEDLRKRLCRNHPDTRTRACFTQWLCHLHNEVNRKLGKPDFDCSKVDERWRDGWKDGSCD
Sequence of Luciferin 4-monooxygenase (P08659 whole entry): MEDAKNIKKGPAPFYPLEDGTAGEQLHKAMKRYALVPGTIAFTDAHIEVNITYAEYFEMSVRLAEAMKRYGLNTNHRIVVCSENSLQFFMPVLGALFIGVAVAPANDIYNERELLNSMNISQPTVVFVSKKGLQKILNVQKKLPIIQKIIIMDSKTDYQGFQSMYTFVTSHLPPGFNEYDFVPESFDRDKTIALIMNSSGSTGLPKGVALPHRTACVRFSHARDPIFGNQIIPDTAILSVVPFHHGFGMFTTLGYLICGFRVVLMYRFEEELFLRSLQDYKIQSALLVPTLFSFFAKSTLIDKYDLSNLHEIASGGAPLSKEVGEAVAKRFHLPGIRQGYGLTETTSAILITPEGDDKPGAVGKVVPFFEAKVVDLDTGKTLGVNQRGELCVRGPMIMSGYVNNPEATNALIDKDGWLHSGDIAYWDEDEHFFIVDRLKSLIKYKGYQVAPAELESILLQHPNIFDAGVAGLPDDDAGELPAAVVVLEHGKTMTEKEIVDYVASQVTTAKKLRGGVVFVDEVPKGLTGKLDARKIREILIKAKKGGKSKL

Which IC50 [1] does the source give for Cc1cc2ccccn2c1C(=O)c1ccc(NN)c([N+](=O)[O-])c1 here?
Its IC50 is > 80 µM (inactive).

For COCCCNC(=O)COc1ccc(-c2nccc(-c3ccccn3)n2)cc1, which IC50 [1] is on record?
The IC50 was > 80 µM (inactive).

With CN(C)S(=O)(=O)c1ccc(NC(=O)N2CCN(c3ccccc3)CC2)cc1 as the compound, how does the IC50 [1] read?
The IC50 was > 80 µM (inactive).

With Cc1cc(O)nc2c(C)cc(S(=O)(=O)N3CCCCC3)cc12 as the compound, how does the IC50 [1] read?
Its IC50 is > 80 µM (inactive).

For COc1cc(/C=c2\sc3n(c2=O)CCCN=3)ccc1O, which IC50 [2] is on record?
The IC50 was 15.6 µM (active).

What about the AC50 [3] of the same compound?
Its AC50 is 4.19 µM (active).

What about the IC50 (Large T antigen) of the same compound?
Its IC50 is 16.2 µM (active).

For CC1=CC2=C(C=O)C(=O)C(C)(O)C(O)C2=CO1 (centres undefined), which EC50 [4] is on record?
The EC50 was > 99 µM (inactive).

What about the EC50 [5] of the same compound?
Its EC50 is > 99 µM (inactive).

What does the source list for C=C(C)CNC(=O)c1ccc2nc(Cc3ccc(OC)cc3)oc2c1?
EC50 (cells [6]): > 350 µM (not active); EC50 (cells [7]): 15.1 µM (active)

Which IC50 (Protein skinhead-1) does the source give for O=C1/C(=C/c2cccs2)CCC/C1=C\c1cccs1 here?
Its IC50 is 95.2 µM (inactive).

What about the EC50 (Streptococcus) of the same compound?
Its EC50 is > 150 µM (not active).

And the EC50 (Streptokinase A)?
The EC50 was 68.5 µM (active).

And the EC50 [8]?
The EC50 was > 150 µM (not active).

For Nc1nnc(S)n1-c1ccc(Cl)cc1, which IC50 [9] is on record?
Its IC50 is 23.7 µM (active).

With CCOC(=O)Cc1nn(CC)c(=O)c2ccccc12 as the compound, how does the EC50 (cells [6]) read?
Its EC50 is > 350 µM (not active).

And the EC50 (cells [7])?
The EC50 was > 350 µM (not active).

Which IC50 (Large T antigen) does the source give for C[C@@H]1O[C@@H](OC2C(O)C(OCCc3ccc(O)c(O)c3)OC(CO)C2OC(=O)/C=C/c2ccc(O)c(O)c2)[C@H](O)[C@H](O)[C@H]1O (some centres undefined) here?
The IC50 was 3.26 µM (active).

Which EC50 (cells [6]) does the source give for CC(C)c1nnc(NC(=O)CCC(=O)NC2CC2)s1 here?
The EC50 was > 350 µM (not active).

What about the EC50 [10] of the same compound?
Its EC50 is > 112 µM (not active).

And the EC50 (cells [7])?
The EC50 was > 350 µM (not active).

And the EC50 [11]?
Its EC50 is > 112 µM (not active).

With COc1ccc2c(C)cc3n[nH]c(=S)n3c2c1 as the compound, how does the IC50 [2] read?
The IC50 was 20.6 µM (active).

What about the IC50 [9] of the same compound?
The IC50 was > 100 µM (inactive).

With COC(=O)Cc1sc(-c2ccccn2)nc1-c1ccccc1 as the compound, how does the IC50 [9] read?
Its IC50 is 41.1 µM (active).

For O=C(Nc1ccccc1)c1ccc(NCCc2ccccc2)c([N+](=O)[O-])c1, which EC50 [4] is on record?
Its EC50 is 84.3 µM (inactive).

What about the EC50 [5] of the same compound?
The EC50 was > 99 µM (inactive).

For NS(=O)(=O)c1ccc(N/N=C/c2ccc[nH]2)c([N+](=O)[O-])c1, which IC50 (Large T antigen) is on record?
Its IC50 is 65.5 µM (active).
